According to ChEMBL document CHEMBL1165932, “Inhibition of Mycobacterium tuberculosis tyrosine phosphatase PtpA by synthetic chalcones: kinetics, molecular modeling, toxicity and effect on growth” (Bioorg Med Chem, 2010):
Calls of active or inactive are those of the source. The rule behind the calls is not given here.

Key:
[1] = target: T1, Low molecular weight protein-tyrosine phosphatase A (Mycobacterium tuberculosis, UniProt P9WIA1); experiment: Inhibition of Mycobacterium tuberculosis PTPA-mediated pNPP hydrolysis
T1 sequence (P9WIA1 whole entry): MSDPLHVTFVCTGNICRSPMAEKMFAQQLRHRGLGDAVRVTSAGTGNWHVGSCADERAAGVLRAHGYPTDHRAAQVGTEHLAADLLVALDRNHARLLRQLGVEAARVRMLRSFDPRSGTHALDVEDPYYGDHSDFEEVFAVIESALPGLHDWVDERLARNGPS

[2] = target: T2, Low molecular weight protein-tyrosine phosphatase A (Mycobacterium tuberculosis) (UniProt P9WIA1); experiment: Competitive inhibition of Mycobacterium tuberculosis PTPA by Lineweaver-Burke plot analysis
T2 sequence (whole entry): T1 sequence (P9WIA1 whole entry)

[3] = target: T3, Phosphotyrosine-protein phosphatase PTPB (Mycobacterium tuberculosis) (UniProt P96830); experiment: Inhibition of Mycobacterium tuberculosis PTPB at 100 uM after 20 mins by ELISA
T3 sequence (whole entry): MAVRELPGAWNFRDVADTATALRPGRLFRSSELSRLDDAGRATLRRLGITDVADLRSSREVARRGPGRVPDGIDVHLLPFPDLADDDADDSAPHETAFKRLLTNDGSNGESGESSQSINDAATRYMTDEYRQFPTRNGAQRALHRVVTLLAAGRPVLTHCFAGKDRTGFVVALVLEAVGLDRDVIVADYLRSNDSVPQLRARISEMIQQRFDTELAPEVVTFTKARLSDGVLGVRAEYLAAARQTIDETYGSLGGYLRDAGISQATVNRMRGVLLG

[4] = target: T4, Tyrosine-protein phosphatase non-receptor type 1 (Homo sapiens, UniProt P18031); experiment: Inhibition of human PTP1B
T4 sequence (P18031 whole entry): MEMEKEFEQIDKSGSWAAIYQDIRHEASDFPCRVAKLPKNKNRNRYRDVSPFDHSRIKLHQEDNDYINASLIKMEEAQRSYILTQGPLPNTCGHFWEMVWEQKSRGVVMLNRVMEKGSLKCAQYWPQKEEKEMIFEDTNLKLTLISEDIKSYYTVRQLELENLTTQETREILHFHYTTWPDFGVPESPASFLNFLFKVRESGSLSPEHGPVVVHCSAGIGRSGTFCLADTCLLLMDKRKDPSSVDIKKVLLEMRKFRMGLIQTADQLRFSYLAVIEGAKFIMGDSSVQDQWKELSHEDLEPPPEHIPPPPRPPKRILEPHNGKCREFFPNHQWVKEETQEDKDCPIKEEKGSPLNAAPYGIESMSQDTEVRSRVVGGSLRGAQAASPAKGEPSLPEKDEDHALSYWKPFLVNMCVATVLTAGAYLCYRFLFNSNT

[5] = system: THP-1; experiment: Cytotoxicity against human THP1 cells at 40 uM after 24 hrs by flow cytometry; format: cell-based; settings: thp-1, 24 h
[6] = system: Mycobacterium tuberculosis; experiment: Antibacterial activity against Mycobacterium tuberculosis H37Rv infected in human THP1 cells assessed as reduction of bacterial burden at 20 uM after 48 hrs; format: functional; settings: for inhibition at 20 µM: THP-1, 48 h; for inhibition: THP-1
[7] = system: Mycobacterium tuberculosis; experiment: Antibacterial activity against Mycobacterium tuberculosis H37Rv infected in human THP1 cells assessed as reduction of bacterial burden at 40 uM after 96 hrs; format: functional; settings: THP-1, 96 h
[8] = target: T2, Low molecular weight protein-tyrosine phosphatase A (Mycobacterium tuberculosis); experiment: Inhibition of Mycobacterium tuberculosis PTPA-mediated dephosphorylation of VPS33B assessed as increase in phosphorylated VPS33B level after 15 mins by scintillation counting
[9] = system: THP-1; experiment: Cytotoxicity against human THP1 cells at 4 uM after 24 hrs by flow cytometry; format: cell-based; settings: thp-1, 24 h
[10] = target: T1, Low molecular weight protein-tyrosine phosphatase A; experiment: Inhibition of Mycobacterium tuberculosis PTPA after 20 mins by ELISA
[11] = system: Mycobacterium tuberculosis; experiment: Antibacterial activity against Mycobacterium tuberculosis H37Rv infected in human THP1 cells assessed as reduction of bacterial burden at 10 uM after 24 hrs; format: functional, organism-based; settings: THP-1
[12] = target: T5, Phosphotyrosine-protein phosphatase PTPB (Mycobacterium tuberculosis, UniProt P96830); experiment: Inhibition of N-terminal histidine-tagged Mycobacterium tuberculosis PTPB expressed in Escherichia coli BL21 (DE3) after 45 mins by fluorescence assay
T5 sequence (P96830 whole entry): T3 sequence (whole entry)

Row | SMILES | Ki [1] | inhibition [2] | inhibition [3] | IC50 [4] | Activity [5] | inhibition at 20 µM [6] | inhibition at 40 µM [7] | inhibition [8] | inhibition [6] | Activity [9] | IC50 [10] | inhibition [11] | IC50 [12]
1 | O=C(/C=C/c1cccc2ccccc12)c1ccccc1O | 9.1 µM | Active | inactive | 158 µM | 2% | 50% | 77% | Dose-dependent effect |  |  |  |  | 
2 | COc1ccc(C(=O)/C=C/c2ccc3ccccc3c2)cc1OC | 4.9 µM | Active | inactive | 1260 µM | 1.6% |  | 40% |  | inactive |  |  |  | 
3 | COc1ccc(OC)c(C(=O)/C=C/c2ccc3ccccc3c2)c1 | 5.4 µM | Active | inactive | 145 µM | 83.1% | 50% | 90% |  |  | 1.3% |  |  | 
4 | COc1cc(C(=O)/C=C/c2ccc3ccccc3c2)ccc1O | 17.9 µM | Active | inactive | 123 µM | 10.5% |  | 80% |  | inactive | 0.9% | 53.7 µM |  | 
5 | COc1ccc(OC)c(C(=O)/C=C/c2cccc3ccccc23)c1 | 21.3 µM | Active | inactive | 214 µM | 77.8% | 77% | 90% |  |  | 0.9% |  | inactive | 
6 | NC1=S2C=CC(S(N)(=O)=O)=C2C(=O)C1=O (configuration not stated) |  |  |  |  |  |  |  |  |  |  |  |  | 0.44 µM
